Literature values as cited in patent publication US20200206380A1, “METHOD OF PRODUCING AND PROVIDING AN ANTIMICROBIAL AGENT THAT EXERTS AN EXTENDED RESIDUAL EFFECT” (Dabney Patents, L.L.C., priority 2018, published 2020).
Where two headings read alike, the source gives them in different places.

System: bacteria
Conditions: exposed for 20 seconds

OO [hydrogen peroxide]
% of bacteria killed (hydrogen peroxide used alone): 30% | % of bacteria killed (in combination with radiation of 360 nm to 500 nm): ≥ 96%
